Results: patent US20110039873A1, “SUBSTITUTED PYRAZOLO[1,5-a] PYRIDINE COMPOUNDS HAVING MULTI-TARGET ACTIVITY” (priority 2009, published 2011)
pIC50: −log10 of the molar value. Read-outs that look alike come from different tables or passages of the source.

Legend:
[1] = target: T1, recombinant human phosphodiesterase 10A1 enzyme (Homo sapiens, UniProt Q9Y233); experiment: PDE10 inhibition assay (PDELight); format: biochemical; conditions: for IC50: 1 uM cAMP, read-out: PDE 10 Inhibition (IC50 in μM); for PDE-10 inhibition (in words): Table 2
T1 construct: purchased BPS Biosciences; host or cells: Baculovirus infected Sf9 cells
T1 sequence (Q9Y233 1-779 isoform Q9Y233-1): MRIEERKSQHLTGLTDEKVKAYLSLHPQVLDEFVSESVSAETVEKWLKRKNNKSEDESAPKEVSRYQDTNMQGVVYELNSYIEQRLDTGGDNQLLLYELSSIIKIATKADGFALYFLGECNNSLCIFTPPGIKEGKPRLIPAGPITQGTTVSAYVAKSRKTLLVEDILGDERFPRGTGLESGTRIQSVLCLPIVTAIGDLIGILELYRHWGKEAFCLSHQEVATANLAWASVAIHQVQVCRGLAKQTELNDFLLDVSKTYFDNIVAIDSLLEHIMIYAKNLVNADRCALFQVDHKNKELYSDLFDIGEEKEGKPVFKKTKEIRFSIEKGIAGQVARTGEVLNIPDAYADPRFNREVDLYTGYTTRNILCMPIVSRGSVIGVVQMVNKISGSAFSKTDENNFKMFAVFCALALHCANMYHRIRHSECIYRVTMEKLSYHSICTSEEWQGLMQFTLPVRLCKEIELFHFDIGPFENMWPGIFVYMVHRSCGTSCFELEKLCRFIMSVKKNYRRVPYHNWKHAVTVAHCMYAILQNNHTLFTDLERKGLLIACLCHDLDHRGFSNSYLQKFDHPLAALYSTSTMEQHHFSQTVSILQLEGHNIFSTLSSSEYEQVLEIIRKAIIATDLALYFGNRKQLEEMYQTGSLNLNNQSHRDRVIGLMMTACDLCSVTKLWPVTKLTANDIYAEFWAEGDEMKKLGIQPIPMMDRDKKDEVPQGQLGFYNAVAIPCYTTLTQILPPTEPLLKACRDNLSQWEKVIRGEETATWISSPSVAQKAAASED
Procedure: In a 96-well plate, recombinant human phosphodiesterase 10A1 enzyme (10 U/well) expressed in Baculovirus infected Sf9 cells (BPS Biosciences) was combined with 1 uM cAMP substrate (Sigma). […] Using a PDELight® kit (Cambrex), the amount of AMP produced in the reaction from the hydrolysis of cAMP was quantified using PDELight AMP Detection Reagent which converts the AMP directly to ATP. The assay uses luciferase, which catalyses the formation of light from the newly formed ATP and luciferin. The luminescence was read on a Victor Light 1420 luminometer. IC50 calculations were plotted using a nonlinear regression curve fit.

[2] = target: T2, catalytic domain of phosphodiesterase 4B enzyme cloned from human brain (Homo sapiens, UniProt Q07343); experiment: PDE4 inhibition assay (PDELight); format: biochemical; conditions: for IC50: 5 uM cAMP, read-out: PDE 4 Inhibition (IC50 in μM)
T2 construct: the catalytic domain of phosphodiesterase 4B enzyme; purchased Scottish Biomedical
T2 sequence (Q07343 330-659 limits assumed): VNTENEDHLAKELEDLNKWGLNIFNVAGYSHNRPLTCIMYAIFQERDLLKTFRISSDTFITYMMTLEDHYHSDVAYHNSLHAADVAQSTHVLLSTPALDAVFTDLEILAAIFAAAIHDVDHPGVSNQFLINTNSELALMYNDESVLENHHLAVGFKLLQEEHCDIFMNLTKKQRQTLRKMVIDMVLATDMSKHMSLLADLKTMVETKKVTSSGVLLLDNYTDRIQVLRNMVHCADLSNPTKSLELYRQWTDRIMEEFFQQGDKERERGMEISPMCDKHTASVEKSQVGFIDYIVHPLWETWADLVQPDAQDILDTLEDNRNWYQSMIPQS
Procedure: In a 96-well plate, the catalytic domain of phosphodiesterase 4B enzyme (40 mU/well) cloned from human brain (Scottish Biomedical) was combined with 5 uM cAMP substrate (Sigma). […] Using a PDELight® kit (Cambrex), the amount of AMP produced in the reaction from the hydrolysis of cAMP was quantified using PDELight AMP Detection Reagent which converts the AMP directly to ATP. The assay uses luciferase, which catalyses the formation of light from the newly formed ATP and luciferin. […] IC50 calculations were plotted using a nonlinear regression curve fit.

[3] = tested on: rat chronic constriction injury (CCI) model of neuropathic pain; experiment: Rat chronic constriction injury (CCI) model of neuropathic pain; format: in vivo; conditions: IP, dose not given; 50% paw withdrawal threshold, von Frey
Procedure: To induce allodynia, male Sprague-Dawley rats underwent chronic constriction injury (CCI) to the sciatic nerve as described by Bennett and Xie, Pain 1988; 33(1):87-107. The plantar surface of the hind paws was stimulated with von Frey filaments (Stoelting) to induce a withdrawal response by blinded personnel. The bending force of fiber required to induce a 50% withdrawal response was calculated following CCI surgery (pre-dosing baseline). N=5-6 allodynic rats received a single IP or oral administration of test compounds or vehicle. Two hours post-dosing, 50% paw withdrawal threshold was determined again by blinded testers using von Frey filaments. The 50% withdrawal threshold prior to CCI surgery, pre-dosing (10 days post-surgery), and 2 hours post-dosing are plotted.
For selected compounds multi-day studies were perfumed with pre-determined schedules for dosing and withdrawal threshold assessments.

[4] = target: T3, recombinant full length human JNK3 enzyme (Homo sapiens, UniProt P53779); experiment: JNK 3 inhibition assay (ATP depletion, luciferase); format: biochemical; conditions: for IC50: 10 uM ATP, ATF2 substrate; for JNK-3 inhibition (in words): see Table 2
T3 construct: recombinant full length human JNK2 or JNK3 enzyme; purchased Upstate; host or cells: Sf21 cells
T3 sequence (P53779 whole entry): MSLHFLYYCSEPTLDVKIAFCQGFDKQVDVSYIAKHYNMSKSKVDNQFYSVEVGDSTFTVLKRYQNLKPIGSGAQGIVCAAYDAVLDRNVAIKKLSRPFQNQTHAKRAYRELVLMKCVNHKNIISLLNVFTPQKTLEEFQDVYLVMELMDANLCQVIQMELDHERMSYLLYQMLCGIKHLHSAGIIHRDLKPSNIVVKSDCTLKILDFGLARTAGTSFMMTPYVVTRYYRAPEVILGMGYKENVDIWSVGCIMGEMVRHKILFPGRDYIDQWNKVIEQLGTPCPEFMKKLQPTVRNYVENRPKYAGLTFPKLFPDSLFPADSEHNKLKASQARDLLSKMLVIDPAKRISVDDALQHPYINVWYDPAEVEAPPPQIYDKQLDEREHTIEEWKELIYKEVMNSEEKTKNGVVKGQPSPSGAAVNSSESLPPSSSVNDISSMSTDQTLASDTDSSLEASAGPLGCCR
Procedure: In a 96-well plate, recombinant full length human JNK2 or JNK3 enzyme (40 ng) expressed in Sf21 cells (Upstate) was incubated with the substrate ATF2 (3 uM) for 1 hour in the presence of 10 uM ATP. […] The ATP levels were quantified using luciferase with luminescence read on a Victor Light 1420 luminometer. IC50 calculations were plotted using a nonlinear regression curve fit.

[5] = tested on: at least one of JNK 3 or JNK 2 and at least one of PDE 10 or PDE 4; experiment: Dual inhibition (phosphodiesterase and JNK); format: biochemical, human; conditions: IC50 JNK 3 or JNK 2 less than about 5.00 μM and PDE 10 or PDE 4 less than about 20.0 or 30.0 μM
Procedure: In a 96-well plate, recombinant full length human JNK2 or JNK3 enzyme (40 ng) expressed in Sf21 cells (Upstate) was incubated with the substrate ATF2 (3 uM) for 1 hour in the presence of 10 uM ATP. The amount of ATP depletion by the JNK enzyme is measured in the presence or absence of test compounds (0-30 uM). The ATP levels were quantified using luciferase with luminescence read on a Victor Light 1420 luminometer. IC50 calculations were plotted using a nonlinear regression curve fit.
In a 96-well plate, the catalytic domain of phosphodiesterase 4B enzyme (40 mU/well) cloned from human brain (Scottish Biomedical) was combined with 5 uM cAMP substrate (Sigma). Test compounds (0-30 uM) or vehicle (0.5% DMSO) were added to the enzyme/substrate and incubated 1 hour. Using a PDELight® kit (Cambrex), the amount of AMP produced in the reaction from the hydrolysis of cAMP was quantified using PDELight AMP Detection Reagent which converts the AMP directly to ATP. The assay uses luciferase, which catalyses the formation of light from the newly formed ATP and luciferin. The luminescence was read on a Victor Light 1420 luminometer. IC50 calculations were plotted using a nonlinear regression curve fit.
In a 96-well plate, recombinant human phosphodiesterase 10A1 enzyme (10 U/well) expressed in Baculovirus infected Sf9 cells (BPS Biosciences) was combined with 1 uM cAMP substrate (Sigma). Test compounds (0-30 uM) or vehicle (0.5% DMSO) were added to the enzyme/substrate and incubated 1 hour. Using a PDELight® kit (Cambrex), the amount of AMP produced in the reaction from the hydrolysis of cAMP was quantified using PDELight AMP Detection Reagent which converts the AMP directly to ATP. The assay uses luciferase, which catalyses the formation of light from the newly formed ATP and luciferin. The luminescence was read on a Victor Light 1420 luminometer. IC50 calculations were plotted using a nonlinear regression curve fit.

[6] = target: T4, recombinant full length human JNK2 enzyme (Homo sapiens, UniProt P45984); experiment: JNK 2 inhibition assay (ATP depletion, luciferase); format: biochemical; conditions: for pIC50: read-out: IC50 value based upon a JNK 2 inhibition assay (range given); for IC50: 10 uM ATP, ATF2 substrate, read-out: JNK 2 Inhibition (IC50 in μM)
T4 construct: recombinant full length human JNK2 or JNK3 enzyme; purchased Upstate; host or cells: Sf21 cells
T4 sequence (P45984 whole entry): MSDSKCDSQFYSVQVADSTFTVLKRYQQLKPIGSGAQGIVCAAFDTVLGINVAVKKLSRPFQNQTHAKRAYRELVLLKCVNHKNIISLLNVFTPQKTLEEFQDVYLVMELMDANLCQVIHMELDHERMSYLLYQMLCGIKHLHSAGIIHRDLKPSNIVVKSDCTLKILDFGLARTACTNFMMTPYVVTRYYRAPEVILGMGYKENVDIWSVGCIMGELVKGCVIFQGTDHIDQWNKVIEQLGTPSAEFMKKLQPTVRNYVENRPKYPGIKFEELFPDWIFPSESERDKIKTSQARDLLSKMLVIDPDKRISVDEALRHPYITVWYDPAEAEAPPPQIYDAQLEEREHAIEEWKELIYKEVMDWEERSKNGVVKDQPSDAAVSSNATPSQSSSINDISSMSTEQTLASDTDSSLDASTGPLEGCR
Procedure: In a 96-well plate, recombinant full length human JNK2 or JNK3 enzyme (40 ng) expressed in Sf21 cells (Upstate) was incubated with the substrate ATF2 (3 uM) for 1 hour in the presence of 10 uM ATP. […] IC50 calculations were plotted using a nonlinear regression curve fit.

[7] = tested on: Mouse BV-2 microglial cells; experiment: BV-2 glial cell assay (TNF-α and MCP-1 by Luminex); format: cell-based; conditions: for EC50: Mus musculus, BV-2, LPS and IFN-γ activated, 20 hours
Procedure: Mouse BV-2 microglial cells were seeded on 96-well plates at a concentration of 3×10^4 cells/well. Cells were activated with 100 ng/mL LPS and IFN-γ (100 ng/mL) in the presence or absence of test compounds (0-30 uM). Following incubation for 20 hours, cells were spun down and supernatant collected. The supernatant was analyzed via Luminex for the presence of TNF-α and MCP-1.

Row | SMILES | IC50 [1] [µM] | PDE-10 inhibition (in words) [1] | PDE-4 inhibition (in words) [2] | IC50 [2] [µM] | IC50 [4] [µM] | dual inhibition (phosphodiesterase and JNK) [5] | JNK-3 inhibition (in words) [4] | pIC50 [6] | IC50 [6] [µM] | EC50 ([7]; read-out: MCP-1 BV-2 (EC50 in μM)) [µM] | EC50 ([7]; read-out: TNF-a BV-2 (EC50 in μM)) [µM] | IP CCI efficacy (Change in grams) [3] [grams] | inhibiting glial cell activation (TNF-α and/or MCP-1) ([7]; Table 3)
1 | Cc1cccc2c(-c3ccnc(NC(C)C)n3)c(C(C)C)nn12 [AV1168, N-isopropyl-4-(2-isopropyl-7-methylpyrazolo[1,5-a]pyridin-3-yl)pyrimidin-2-amine] | 59 | – | particularly effective | 2.9 | 2.2 | effective dual inhibitors | – | – | 8.1 | – | – | 0 | –
2 | COCc1nn2ccccc2c1-c1ccnc(NC(C)C)n1 [AV1175, N-isopropyl-4-(2-(methoxymethyl)pyrazolo[1,5-a]pyridin-3-yl)pyrimidin-2-amine] | > 100 | – | particularly effective | 8.6 | 1.2 | effective dual inhibitors | particularly effective | – | 4.5 | – | – | – | –
3 | CC(C)Nc1nccc(-c2c(-c3ccccc3)nn3ccccc23)n1 [AV1176, N-isopropyl-4-(2-phenylpyrazolo[1,5-a]pyridin-3-yl)pyrimidin-2-amine] | > 100 | – | particularly effective | 3.8 | 0.1 | effective dual inhibitors | particularly effective | 5.70 to 8.00 | 0.1 | – | – | – | –
4 | CC(C)Cc1nn2ccccc2c1-c1ccnc(NC(C)C)n1 [AV1177, 4-(2-isobutylpyrazolo[1,5-a]pyridin-3-yl)-N-isopropylpyrimidin-2-amine] | > 100 | – | particularly effective | 6.4 | 1.8 | effective dual inhibitors | particularly effective | – | 3 | – | – | – | –
5 | Cc1nn2ccccc2c1-c1ccnc(NC2CCCC2)n1 [AV1182, N-cyclopentyl-4-(2-methylpyrazolo[1,5-a]pyridin-3-yl)pyrimidin-2-amine] | > 100 | – | particularly effective | 5.7 | 0.9 | effective dual inhibitors | particularly effective | – | – | – | – | – | –
6 | Clc1cccc(-c2nn3ccccc3c2-c2ccnc(NC3CCCC3)n2)c1 [AV1194, 4-(2-(3-chlorophenyl)pyrazolo[1,5-a]pyridin-3-yl)-N-cyclopentylpyrimidin-2-amine] | > 100 | – | particularly effective | 5.2 | 0.08 | effective dual inhibitors | particularly effective | 5.70 to 8.00 | 0.1 | 1.2 | 0.03 | – | Particularly effective

These reach a lower IC50 [1]. Values come first.

Row | IC50 [1] [µM] | PDE-10 inhibition (in words) [1] | PDE-4 inhibition (in words) [2] | IC50 [2] [µM] | IC50 [4] [µM] | dual inhibition (phosphodiesterase and JNK) [5] | JNK-3 inhibition (in words) [4] | pIC50 [6] | IC50 [6] [µM] | EC50 ([7]; read-out: MCP-1 BV-2 (EC50 in μM)) [µM] | EC50 ([7]; read-out: TNF-a BV-2 (EC50 in μM)) [µM] | SMILES | IP CCI efficacy (Change in grams) [3] [grams] | inhibiting glial cell activation (TNF-α and/or MCP-1) ([7]; Table 3)
7 | 37 | – | – | 13 | 0.7 | effective dual inhibitors | particularly effective | 5.70 to 8.00 | 1.5 | – | – | CC(C)CNc1nccc(-c2cnn3ccccc23)n1 [AV1167, N-isobutyl-4-(pyrazolo[1,5-a]pyridin-3-yl)pyrimidin-2-amine] | – | –
8 | 31 | – | particularly effective | 7.9 | 1.1 | effective dual inhibitors | particularly effective | 5.70 to 8.00 | 1.2 | – | – | CCCCc1nn2ccccc2c1-c1ccnc(NC(C)C)n1 [AV1174, 4-(2-butylpyrazolo[1,5-a]pyridin-3-yl)-N-isopropylpyrimidin-2-amine] | – | –
9 | 20 | – | particularly effective | 8.6 | 3 | effective dual inhibitors | – | 5.70 to 8.00 | – | – | – | CC(C)c1nn2ccccc2c1-c1ccnc(NC2CCC2)n1 [AV1156, N-cyclobutyl-4-(2-isopropylpyrazolo[1,5-a]pyridin-3-yl)pyrimidin-2-amine] | 0.33 | –
10 | 16.8 | particularly effective | particularly effective | 4.5 | 1.5 | effective dual inhibitors | particularly effective | – | – | – | – | CC(C)c1nn2ccccc2c1-c1ccnc(NC2CC2)n1 [AV1136, N-cyclopropyl-4-(2-isopropylpyrazolo[1,5-a]pyridin-3-yl)pyrimidin-2-amine] | 0 | –
11 | 9.3 | particularly effective | particularly effective | 6.2 | 8.2 | effective dual inhibitors | – | – | – | – | – | CC(C)c1nn2ccccc2c1-c1ccnc(NCCCO)n1 [AV1134, 3-(4-(2-isopropylpyrazolo[1,5-a]pyridin-3-yl)pyrimidin-2-ylamino)propan-1-ol] | 0 | –
